Laboratory results from patent US11939308B2, “Biphenyl derivative compound and use thereof” (EWHA UNIVERSITY—INDUSTRY COLLABORATION FOUNDATION, priority 2018, dated 2024).

How the values were obtained:
recombinant Nm23-H1 = recombinant Nm23-H1 (Homo sapiens, UniProt P15531); assay: NDPK assay with recombinant Nm23-H1; type: biochemical; set-up: NDPK activity: unit not given here; settings: for NDPK activity: 5 ng recombinant Nm23-H1, 10 min room temperature, then 5 μM ADP 1 min, compound concentration not given
Chain of recombinant Nm23-H1 (P15531 whole entry): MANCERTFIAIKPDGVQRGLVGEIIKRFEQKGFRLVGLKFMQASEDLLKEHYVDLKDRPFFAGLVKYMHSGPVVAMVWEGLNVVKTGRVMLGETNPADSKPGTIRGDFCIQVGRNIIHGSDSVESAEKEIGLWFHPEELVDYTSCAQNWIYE
Procedure: NDPK assay was performed by incubating 5 ng of recombinant Nm23-H1 with each of test compounds (Examples 1 to 3) in NDPK assay buffer (20 mM HEPES, 3 mM MgCl2) at room temperature for 10 minutes, followed by reaction with 5 μM ADP for 1 minute.

MDA-MB-231 cells [1] = assay: Immunofluorescent staining assay (F-actin localization); type: cell-based; settings: Rhodamine-Phalloidin staining, various times
Procedure: MDA-MB-231 cells were grown on the Secureslip™ (Sigma) cell culture glass cover slip to a confluence of 50 to 70%, and then treated with or without the compound of Example 1 (B038) for various times. The cells were gently washed with cold HBSS, and then fixed with 4% paraformaldehyde-containing HBSS […] for 10 minutes at room temperature. After washing with HBSS, permeabilization with 0.1% Triton X-100 was performed for 10 minutes at room temperature. After washing twice with HBSS, the cells were blocked with 3% BSA, 0.2% Tween20 and 0.2% gelatin in HBSS for 1 hour at room temperature, and incubated with primary antibody at 37° C. for 2 hours. F-actin was stained by Rhodamine-Phalloidin (Thermo Fisher Scientific) for 2 hours at 37° C., followed by washing 3 times with HBSS for 20 minutes. Coverslips were mounted with an anti-fading solution and viewed using an ×63 objective lens of an LSM510 META (Zeiss) laser scanning confocal microscope.

MDA-MB-231 cells [2] = assay: Matrigel invasion assay; type: cell-based; settings: Transwell with Matrigel, 24 hours at 37° C.
Procedure: Invasion assay was performed using a Transwell® unit (Corning, USA) with a polycarbonate membrane (pore size: 8 μm), with or without Matrigel coating. The membrane was coated with 50 μg Matrigel™-based membrane matrix (BD Bioscience, USA). 5×10^4 MDA-MB-231 cells were seeded into the upper chamber in a serum-free medium together with the compound of Example 1, and the lower chamber was filled with a medium containing 10% FBS. After incubation for 24 hours at 37° C., the cells on the upper side of the membrane were removed. The cells invading to the underside of the membrane were stained with 0.5% Crystal violet in 25% methanol and counted at 100-fold magnification under a microscope.

Compound	NDPK activity (recombinant Nm23-H1)	further results
COc1ccc(-c2ccccc2CCc2ccc(OC)c(OC)c2)cc1O [Example 6, 2′-(3,4-dimethoxyphenethyl)-4-methoxy-[1,1′-biphenyl]-3-ol]	1.9	–
COc1cc(CCc2ccccc2-c2ccc(OC)c(OC)c2)ccc1O [Example 10, 4-(2-(3′,4′-dimethoxy-[1,1′-biphenyl]-2-yl)ethyl)-2-methoxyphenol]	2.6	–
COc1cc(-c2ccccc2CCc2ccc(OC)c(OC)c2)ccc1O [Example 5, 2′-(3,4-dimethoxyphenethyl)-3-methoxy-[1,1′-biphenyl]-4-ol]	4	–
COc1ccc(CCc2ccccc2-c2ccc(OC)c(OC)c2)cc1O [Example 7, 5-(2-(3′,4′-dimethoxy-[1,1′-biphenyl]-2-yl)ethyl)-2-methoxyphenol]	3.5	–

Further lines, with some results ahead:

NDPK activity (recombinant Nm23-H1)	Compound	further results
6.55	COc1ccc(CCc2ccccc2-c2ccc(OC)c(OC)c2)cc1OC [Example 1]	NDPK activity-increasing effect at various concentrations (FIG. 1) (recombinant Nm23-H1; various concentrations): excellent effect of increasing NDPK activity even at low concentrations; localization of F-actin (ruffles, cell-to-cell contact; FIG. 3) (MDA-MB-231 cells [1]): ruffles decreased and cell-to-cell contact increased; cell invasion (counting invaded cells, FIGS. 2A and 2B) (MDA-MB-231 cells [2]): significantly suppressed cell invasion
1.52	COc1ccc(C(=O)Nc2ccccc2-c2ccc(OC)c(OC)c2)cc1OC [Example 4, N-(3′,4′-dimethoxy-[1,1′-biphenyl]-2-yl)-3,4-dimethoxybenzamide]	–
1.32	COc1ccc(NC(=O)c2ccccc2-c2ccc(OC)c(OC)c2)cc1OC [Example 3, N-(3,4-dimethoxyphenyl)-3′,4′-dimethoxy-[1,1′-biphenyl]-2-carboxamide]	–
4.08	COc1ccc(-c2ccccc2C2OC2c2ccc(OC)c(OC)c2)cc1OC (centres unmarked) [Example 2, 2-(3′,4′-dimethoxy-[1,1′-biphenyl]-2-yl)-3-(3,4-dimethoxyphenyl)oxirane]	–
